Results as given in US7122683B2, “Amides useful as monoamine re-uptake inhibitors” (Pfizer Inc., priority 2004, dated 2006).
pKi: −log10 of the molar value. Where a name gives a salt, the structure may show the parent alone.

Experiments:
[1] = molecular target: T1, human noradrenaline transporter (hNET) (Homo sapiens, UniProt P23975); assay: SPA radioligand binding at human noradrenaline transporter (3H-nisoxetine); settings: hNET membranes from HEK-293 cells, Ki from IC50 by Cheng-Prusoff, geometric mean, read-out: NRI Ki
T1 construct: expressed in transfected cells; host or cells: HEK-293
T1 sequence (P23975 whole entry): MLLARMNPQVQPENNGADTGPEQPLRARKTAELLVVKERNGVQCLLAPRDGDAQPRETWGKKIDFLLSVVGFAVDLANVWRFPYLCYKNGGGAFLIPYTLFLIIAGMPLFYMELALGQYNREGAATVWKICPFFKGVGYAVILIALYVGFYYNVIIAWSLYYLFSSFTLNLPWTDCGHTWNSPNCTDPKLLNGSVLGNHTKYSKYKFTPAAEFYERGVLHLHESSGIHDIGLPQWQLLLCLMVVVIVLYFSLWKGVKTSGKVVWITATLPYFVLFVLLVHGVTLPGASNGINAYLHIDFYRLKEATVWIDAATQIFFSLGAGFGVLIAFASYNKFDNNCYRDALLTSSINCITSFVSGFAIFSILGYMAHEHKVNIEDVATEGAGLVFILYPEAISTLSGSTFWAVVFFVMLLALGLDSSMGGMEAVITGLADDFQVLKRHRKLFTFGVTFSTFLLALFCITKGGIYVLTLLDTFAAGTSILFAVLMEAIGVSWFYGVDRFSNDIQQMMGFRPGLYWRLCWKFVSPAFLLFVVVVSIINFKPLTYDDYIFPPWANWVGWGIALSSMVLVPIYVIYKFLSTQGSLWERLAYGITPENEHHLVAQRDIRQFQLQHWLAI
Procedure: (§1) The compounds were tested for biological activity by their ability to inhibit binding of selective radioligands at the human serotonin and noradrenaline transporters (SERT and NET, respectively), using scintillation proximity assay (SPA) technology. The SPA binding was performed using cellular membrane preparations prepared from cell lines expressing human cDNA encoding either SERT or NET (hSERT, hNET), using the radioligands ^3H-citalopram and ^3H-nisoxetine.
(§2) Human embryonic kidney cells (HEK-293) expressing each transporter were maintained as a continuous culture, using standard cell culture techniques, in 50 mL of growth medium (see Media and Buffers for composition) in 225 cm^2 flasks, at 37° C. in a humidified atmosphere with 5% CO2 present. Cells were passaged from a 90% confluent monolayer at a ratio of 1:3–1:4.
(§3) For cell harvesting, the growth medium was removed from the monolayer and the cells were incubated with cell dissociation solution (Sigma) until showing signs of dissociation. The cells were subsequently knocked from the base of the flask and pelleted by centrifugation for storage (frozen at −80° C.) prior to further use.
(§4) Cell pellets were thawed on ice and resuspended in 3 mL of membrane preparation buffer (see Media and Buffers for composition) per 1 mL of packed cell volume, using a vortex mixer to disperse the cell pellet. After incubation on ice for 10 minutes, the suspension was homogenised for four individual 10 second intervals using a hand-held homogeniser. The homogenate was then centrifuged at 1075×g for 20 minutes at 4° C.
(§5) The supernatants were then collected and retained. […]
(§6) The pooled supernatants were centrifuged at 35000×g for 30 minutes at 4° C., and the supernatants discarded. […] Protein concentrations were then measured and the membrane suspension was finally frozen in aliquots of set volume and stored at −80° C. prior to use in assays.
(§7) The specific SPA bead type differed for each transporter, wheat germ agglutinin-coated yttrium silicate (YSi WGA) SPA beads were used for hSERT and WGA-coated polyvinyltoluene (PVT WGA) SPA beads for hNET assays. For each batch of membrane used, optimal concentrations of bead and membrane were determined
(§8) Tritiated radioligands specific to each transporter (^3H-citalopram for hSERT and ^3H-nisoxetine for hNET) were used. The assay free radioligand concentration was expressed as a percentage of the total free radioligand concentration to give an estimate of the radioligand depletion. […]
(§9) The affinity of the specific radioligand for the respective transporter was determined for each membrane batch at the selected protein and bead concentrations. […]
(§10) The mean KD for a radioligand at a batch of membranes was determined from data from a minimum of three separate assays. […]

[2] = molecular target: T2, human serotonin transporter (hSERT) (Homo sapiens, UniProt P31645); assay: SPA radioligand binding at human serotonin transporter (3H-citalopram); settings: hSERT membranes from HEK-293 cells, Ki from IC50 by Cheng-Prusoff, geometric mean, read-out: SRI Ki
T2 construct: expressed in transfected cells; host or cells: HEK-293
T2 sequence (P31645 whole entry): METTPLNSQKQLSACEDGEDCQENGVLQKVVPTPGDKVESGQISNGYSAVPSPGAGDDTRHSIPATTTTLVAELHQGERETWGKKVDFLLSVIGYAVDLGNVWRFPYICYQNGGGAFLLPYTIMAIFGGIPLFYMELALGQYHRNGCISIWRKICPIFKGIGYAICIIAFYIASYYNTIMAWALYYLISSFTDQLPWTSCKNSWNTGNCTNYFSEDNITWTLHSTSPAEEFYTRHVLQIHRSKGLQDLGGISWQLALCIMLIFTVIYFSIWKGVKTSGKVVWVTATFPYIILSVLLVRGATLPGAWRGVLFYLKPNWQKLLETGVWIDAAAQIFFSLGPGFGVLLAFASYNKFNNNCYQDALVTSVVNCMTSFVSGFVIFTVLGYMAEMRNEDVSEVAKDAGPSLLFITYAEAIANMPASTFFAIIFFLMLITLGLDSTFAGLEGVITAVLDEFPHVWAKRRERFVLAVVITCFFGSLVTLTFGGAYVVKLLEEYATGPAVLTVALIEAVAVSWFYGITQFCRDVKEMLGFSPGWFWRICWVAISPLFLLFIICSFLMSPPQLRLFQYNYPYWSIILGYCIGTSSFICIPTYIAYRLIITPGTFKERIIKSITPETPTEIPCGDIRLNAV
Procedure: as §1, §2, §3, §4, §5, §6, §7, §8, §9, §10

SMILES | pKi [1] | pKi [2]
O=C(c1cccc(Cl)c1Cl)N(C1CCCC1)[C@H]1CCNC1 [Example 1, 2,3-dichloro-N-cyclopentyl-N-[(3S)pyrrolidin-3-yl]benzamide hemi-edisylate] | 7.82 | 8.30
O=C(c1cccc(Cl)c1Cl)N(C1CCCCC1)[C@H]1CCNC1 [Example 6, 2,3-dichloro-N-cyclohexyl-N-[(3S)-pyrrolidin-3-yl]benzamide hydrochloride] | 7.96 | 8.05
O=C(c1ccccc1Cl)N(C1CCCCC1)[C@H]1CCNC1 [Example 14, 2-chloro-N-cyclohexyl-N-[(3S)pyrrolidin-3-yl]benzamide] | 8.05 | 7.96
Cc1c(Cl)cccc1C(=O)N(CC1(C)CC1)[C@H]1CCNC1 [Example 20, 3-chloro-2-methyl-N-[(1-methylcyclopropyl)methyl]-N-[(3S)pyrrolidin-3-yl]benzamide hydrochloride] | 7.85 | 8.52
